Source: patent US5206247A, “Spiro(4.5.)decane compounds” (Adir Et Compagnie, priority 1990, dated 1993)
Blank lines part the entries; values can stand above or below the molecule they belong to.

Legend:
[1] = test system: human LDLs; assay: Modification of the LDLs by copper sulphate (MDA formation); format: biochemical; details: for IC50: oxidation by copper sulphate, 24 hours, read-out: IC50 Cu^2+ (inhibition of lipid peroxidation of human LDLs, MDA production)
Experimental: Human LDLs are incubated for 24 hours in the presence of copper sulphate (5×10^-5 M or 5×10^-6 M) and in the absence or presence of the test compounds (10^-7 M to 10^-4 M).
After incubation, the peroxidation of the LDLs is evaluated by electrophoresis on agar gel and by the formation of one of the products of lipid peroxidation: malonic dialdehyde (MDA) (Parthasarathy S., Young S. G., Witztum J. L., Pittman R. C., and Steinberg D.; J. Clin. Invest. 77, 641-644, 1986).
The activity of the test compounds is evaluated by calculating the concentrations that reduce the production of MDA by 50% (IC50) compared with control experiments carried out in the absence of test compound.
(§1) Table A lists the IC50 values, which indicate the capacity to inhibit the lipid peroxidation of human LDLs, obtained with a sample of the compounds of the invention and of the reference compounds probucol and vitamin E, in two tests causing the development of the oxidation of the LDLs: by copper sulphate (Cu^2+) or by endothelial cells (EC).

[2] = test system: human LDLs; assay: Modification of the LDLs by endothelial cells (MDA formation); format: cell-based; details: for times more powerful than probucol (endothelial cells): test using endothelial cells
Experimental: Human LDLs are incubated for 24 hours in the presence of rabbit aorta endothelial cells (line RECL B4 supplied by Professor Steinberg, USA) and in the absence or presence of the test compounds (10^-7 M to 10^-4 M).
After incubation, the peroxidation of the LDLs is evaluated by electrophoresis on agar gel and by the formation of one of the products of lipid peroxidation: malonic dialdehyde (MDA) (Steinbrecher U.P., Parthasarathy S, Leake D. S., Witztum J. L., and Steinberg D., Proc. Nat. Acad. Sci. USA 81. 3883-3887, 1984).
The activity of the test compounds is evaluated by calculating the concentrations that reduce the production of MDA by 50% (IC50) compared with the control experiments carried out in the absence of test compound.
as §1

[3] = test system: cardiac cells; assay: Oxidative necrosis of cardiac cells induced by hypoxanthine/xanthine oxidase; format: cell-based, new-born rats; details: for index of necrosis of cardiac cells: 240 min
Experimental: Cardiac cells of new-born rats are used between the 5th and 6th days after placing in a culture. Oxidative necrosis is induced by the enzymatic system hypoxanthine (HX, 1 mM) and xanthine oxidase (XO, 10 mU/ml), which produces free radicals. The necrosis is evaluated 4 hours after the addition of XO/HX by the spectrophotometric measurement of the cytosolic α-hydroxybutyrate dehydrogenase (α-HBDH) activity liberated in the supernatant. Two reference molecules (probucol, vitamin E) and 3 molecules representative of the present invention (corresponding to Examples 1, 3 and 4) were tested. The cells are treated with the molecules 16 hours and 1 hour before the beginning of the experiment after renewing the medium. At the beginning of the experiment, the treatment is carried out one last time.
Table B lists the indices of the necrosis of cardiac cells induced by the system hypoxanthine/xanthine oxidase on its own or in the presence of increasing concentrations of the compounds of the invention or of the reference compounds: probucol and vitamin E.
The necrosis index 100 corresponds to a liberation of 43.6±1.0% in 4 hours of the cytosolic content of α-HBDH in the supernatant.
The results are expressed in the form of means ± sem (4≤n≤5, 3 repetitions per experiment).

[4] = test system: LDLs of the Watanabe rabbits; assay: Ex vivo copper sulphate oxidation of LDLs from orally treated Watanabe rabbits (MDA production); format: in vivo; details: for MDA production: 3 days
Experimental: Watanabe rabbits ([…] hyperlipidaemic rabbits) are used that range in weight from 3 kg to 5 kg. The animals are treated orally with the carrier of the test compounds (control group) or with the test compounds at doses of 10, 50 and 250 mg/kg/day for 3 days.
When the treatment is complete, the LDLs of the animals are prepared by ultracentrifugation and subjected to oxidation with copper sulphate (5×10^-6 M). The lipid peroxidation of the LDLs is evaluated after various periods of incubation with copper sulphate (from 2 to 24 hours) by measuring the formation of MDA.
Table C lists the MDA production values according to the incubation period with copper sulphate of those LDLs originating from the control animals and those originating from the animals treated with the compounds of Examples 1, 3 and 31 at different doses or with probucol.

[5] = oral, peroxidation induced by copper sulphate

Molecule: Cc1c(C)c2c(c(C)c1O)CCC(C)(CCCN1CCC3(CC1)CNC(=O)O3)O2 (centres unmarked) [Example 34]
IC50 [1]: 300 nM

Molecule: Cc1c(C)c2c(c(C)c1O)CCC(C)(CCN1CCC3(CC1)CNC(=O)O3)O2 (centres unmarked) [Example 33]
IC50 [1]: 300 nM

Molecule: vitamin E [reference compound]
IC50 ([2]; oxidation by rabbit aorta endothelial cells, 24 hours, read-out: IC50 EC (inhibition of lipid peroxidation of human LDLs, MDA production)): 4000 nM | index of necrosis of cardiac cells ([3]; 10^-5 M, control = 100, means ± sem, 10 µM): 61.1 ± 2.5 | index of necrosis of cardiac cells ([3]; 10^-6 M, control = 100, means ± sem, 1 µM): 79.0 ± 7.4 | index of necrosis of cardiac cells ([3]; 10^-7 M, control = 100, means ± sem, 0.1 µM): 83.5 ± 8.0 | IC50 [1]: > 100000 nM

The next lines start with results.

IC50 [1]: 300 nM
Molecule: Cc1cc(OCCCCCN2CCC3(CC2)CNC(=O)O3)c(C)c(C)c1O [Example 30]

IC50 [1]: 300 nM
Molecule: Cc1cc(SCC(O)CN2CCC3(CC2)CNC(=O)O3)c(C)c(C)c1O (centres unmarked) [Example 32]
times more powerful than probucol (endothelial cells) [2]: 100 times

IC50 [1]: 300 nM
Molecule: CC(C)(C)c1cc(SCCCN2CCC3(CC2)CNC(=O)O3)cc(C(C)(C)C)c1O [Example 3]
ability to protect human LDLs compared with probucol or vitamin E, endothelial cells ([2]; modifications induced by endothelial cells): greater ability | times more powerful than probucol (endothelial cells) [2]: 100 times | effect on oxidative necrosis of cardiac cells compared with reference compounds ([3]; 10^-6 M and 10^-5 M): distinctly superior to the reference compounds | activity at 10 µM ([3]; Rattus norvegicus, 4 h, 10^-5 M, control = 100, means ± sem, read-out: index of necrosis of cardiac cells): 4.2 ± 2.7% | activity at 1 µM ([3]; Rattus norvegicus, 4 h, 10^-6 M, control = 100, means ± sem, read-out: index of necrosis of cardiac cells): 12 ± 4.4% | activity at 0.1 µM ([3]; Rattus norvegicus, 4 h, 10^-7 M, control = 100, means ± sem, read-out: index of necrosis of cardiac cells): 60.6 ± 17.1% | inhibition at 10 µM ([3]; Rattus norvegicus, Cardiomyocyte, 4 h, 10^-5 M, read-out: reduction of oxidative necrosis of cardiomyocytes): > 95% | inhibition at 1 µM ([3]; Rattus norvegicus, Cardiomyocyte, 4 h, 10^-6 M, read-out: reduction of oxidative necrosis of cardiomyocytes): > 80% | ability to protect human LDLs compared with probucol or vitamin E, copper sulphate ([1]; modifications induced by copper sulphate): greater ability | MDA production ([4]; 10 mg/kg/day oral, 2 hours incubation with copper sulphate): 1.27 nM/mg proteins | MDA production ([4]; 10 mg/kg/day oral, 4 hours incubation with copper sulphate): 0.27 nM/mg proteins | MDA production ([4]; 10 mg/kg/day oral, 6 hours incubation with copper sulphate): 3.29 nM/mg proteins | MDA production ([4]; 10 mg/kg/day oral, 8 hours incubation with copper sulphate): 6.85 nM/mg proteins | MDA production ([4]; 10 mg/kg/day oral, 24 hours incubation with copper sulphate): 22.78 nM/mg proteins | MDA production ([4]; 50 mg/kg/day oral, 2 hours incubation with copper sulphate): 0.16 nM/mg proteins | MDA production ([4]; 50 mg/kg/day oral, 4 hours incubation with copper sulphate): 0 nM/mg proteins | MDA production ([4]; 50 mg/kg/day oral, 6 hours incubation with copper sulphate): 1.06 nM/mg proteins | MDA production ([4]; 50 mg/kg/day oral, 8 hours incubation with copper sulphate): 1.44 nM/mg proteins | MDA production ([4]; 50 mg/kg/day oral, 24 hours incubation with copper sulphate): 7.30 nM/mg proteins | MDA production ([4]; 250 mg/kg/day oral, 2 hours incubation with copper sulphate): 0.66 nM/mg proteins | MDA production ([4]; 250 mg/kg/day oral, 4 hours incubation with copper sulphate): 0 nM/mg proteins | MDA production ([4]; 250 mg/kg/day oral, 6 hours incubation with copper sulphate): 0 nM/mg proteins | MDA production ([4]; 250 mg/kg/day oral, 8 hours incubation with copper sulphate): 0.69 nM/mg proteins | MDA production ([4]; 250 mg/kg/day oral, 24 hours incubation with copper sulphate): 0.91 nM/mg proteins | dose from which particularly effective [4, 5]: ≥ 10 mg/kg/day | dose from which peroxidation of the LDLs is inhibited [4, 5]: ≥ 50 mg/kg/day

IC50 [1]: 2000 nM
Molecule: CC(C)(C)c1cc(OCC(O)CN2CCC3(CC2)CNC(=O)O3)cc(C(C)(C)C)c1O (centres unmarked) [Example 7]
